Measurements taken from US20220267390A1, “MPS MODIFIED PEPTIDES AND USE THEREOF” (The Regents of the University of California, priority 2019, published 2022).
Where no end group is shown, it is not given here.

System: LG704 oncospheres
Assay: RNA-seq of LG704 oncospheres
Assay type: cell-based, human
Settings: 50 μM
Protocol: These genes were then analyzed with GSEA to determine which functional pathways were most affected by MARCKS. Right, Heat map of cancer-stemness markers associated with MARCKS activity.
Targeting the MARCKS PSD is associated with inhibition of stem-like cell properties. In light of the importance of the PSD in the functionality of MARCKS protein, Applicant designed a 25-mer MPS peptide to mimic the MARCKS phosphorylation site domain (PSD). […] Applicant's initial studies have shown that elevation of phospho-MARCKS in lung cancer spheres acted in parallel with increased stemness markers, such as CD133, Oct3/4, SOX2 and Nanog (data not included). The oncospheres were derived from high MARCKS-expressing lung cancer cell lines (H1975 and CL1-5) and primary lung cancer cells (LG704 and LC3: pleural effusion cells isolated from patients with advanced stage) in non-adherent serum-free culture conditions as described previously^30-32. Flow cytometry confirmed that ˜80% of LG704 oncosphere cells are CD133-positive, a major lung CSCs marker. […] Through a comparison of transcriptome profiling between PBS- and MPS-treated LG704 oncospheres by RNA-seq, Applicant identified a total of 352 coding genes altered by MARCKS inhibition (FIG. 15, left). […] The sphere-forming ability was assessed by counting the number and size of tumor spheres (oncospheres) under a microscope. […]

KKKKKRFSFKKSFKLSGFSFKKNKK [MPS peptide]
cancer stemness genes (ABCC8, CDH5, PROM1 (CD133), ALDH1L1, FGFR2): decreased
